Source: publication PMC11124413, “Synthesis, Antibacterial Effects, and Toxicity of Licochalcone C” (Pharmaceuticals, 2024)
In brackets after ≈: the same amount, converted by molar mass.

Key:
[1] = test system: S. sanguinis (ATCC 10556); assay: MIC, broth microdilution with resazurin; assay type: cell-based; settings: ATCC10556; Streptococcus sanguinis; mean of triplicates
S. sobrinus (ATCC 33478) = assay: MIC, broth microdilution with resazurin; assay type: cell-based; settings: ATCC33478; Streptococcus sobrinus; mean of triplicates
S. mutans (ATCC 25175) = assay: MIC, broth microdilution with resazurin; assay type: cell-based; settings: ATCC25175; Streptococcus mutans; mean of triplicates
[2] = test system: Galleria mellonella larvae; assay: Systemic toxicity in Galleria mellonella larvae; assay type: in vivo; settings: 100% DMSO; after 40 h
Method: The systemic toxicity assay was performed to evaluate the acute toxic effects of LCC, following the procedures described by Megaw [63]. For the experiment, 10 healthy larvae from G. mellonella were randomly selected for each concentration test, with a weight range between 0.2 g and 0.3 g and without melanization aspects. The larvae were chilled on ice for 20 min and had their prolegs cleaned with 70% ethanol. […] Five microliters of the solution were injected into the hemocoel of each larva through the last left proleg using a 25 µL Hamilton syringe. After the administration, the larvae were incubated at 37 °C and their survival was monitored in selected intervals over 72 h. The larvae unable to move when touched and showing elevated levels of melanization were counted as dead. Experiments were performed in triplicate.

Gram-negative strains = test system: Gram-negative strains; design: method as in PMID 20160051; settings: without efflux pump inhibitor (EPI); cited from earlier work
[3] = test system: M. tuberculosis (ATCC 27294); assay: Antimycobacterial MIC, resazurin microtiter assay; assay type: cell-based; settings: ATCC27294; Mycobacterium tuberculosis; mean of triplicates
M. avium (ATCC 25291) = assay: Antimycobacterial MIC, resazurin microtiter assay; assay type: cell-based; settings: ATCC25291; Mycobacterium avium; mean of triplicates
M. kansasii (ATCC 12478) = assay: Antimycobacterial MIC, resazurin microtiter assay; assay type: cell-based; settings: ATCC12478; Mycobacterium kansasii; mean of triplicates

## [H]/N=C(\N/C(=N/[H])NCCCCCCNC(=N)NC(=N)Nc1ccc(Cl)cc1)Nc1ccc(Cl)cc1 [Chlorhexidine, chlorhexidine, reference compound]
[1]
  MIC: 1.8 mg/L (≈ 3.56 µM)
S. sobrinus (ATCC 33478)
  MIC: 3.6 mg/L (≈ 7.12 µM)
S. mutans (ATCC 25175)
  MIC: 0.4 mg/L (≈ 0.791 µM)

## C[S+](C)[O-] [DMSO, dimethyl sulfoxide, reference compound]
[2]
  lethality to larvae: total lethality

## CC(C)=CCc1c(O)ccc(C(=O)/C=C/c2ccc(O)cc2)c1O [IBC, isobavachalcone]
Gram-negative strains
  antibacterial activity: weakly active

## NNC(=O)c1ccncc1 [Isoniazid, reference compound]
[3]
  MIC: 0.5 mg/L (≈ 3.65 µM)
M. avium (ATCC 25291)
  MIC: > 1 mg/L
M. kansasii (ATCC 12478)
  MIC: 1 mg/L (≈ 7.29 µM)
